± gives the standard deviation of the averaged measurements.
How the values were obtained:
Experiment in all cases: level (log10 ratio to DMSO vehicle control); higher = higher biomarker level / cell amount than vehicle control
Conditions in all cases: in DMSO
1H,1H-Heptafluorobutanol = compound: OCC(F)(F)C(F)(F)C(F)(F)F [1H,1H-Heptafluorobutanol]
Procedure: (§1)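 BioMAP Diversity Plus panel of 12 human primary cell co-culture systems (3C, 4H, LPS, SAg, BT, BF4T, BE3C, CASM3C, HDF3CGF, KF3CT, MyoF, Mphg). Compounds were added 1 h before stimulation and left for 24 h (MyoF 48 h; BT 72 h for soluble read-outs or 6 d for IgG). Biomarkers were read by ELISA, cytotoxicity by SRB, PBMC viability and proliferation by Alamar Blue. Each well value was divided by the mean of 8 DMSO control wells on the same plate and log10 transformed; duplicate blinded samples were tested at 4 concentrations.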

Perfluorooctanamidine = compound: N=C(N)C(F)(F)C(F)(F)C(F)(F)C(F)(F)C(F)(F)C(F)(F)C(F)(F)F [Perfluorooctanamidine]
Procedure: as §1

[1] = compound: CC(C)(C)C(=O)CC(=O)C(F)(F)C(F)(F)C(F)(F)F [(Heptafluorobutanoyl)pivaloylmethane]
Procedure: as §1

[2] = compound: OCC(F)(F)C(F)(F)C(F)(F)C(F)(F)C(F)(F)C(F)F [1H,1H,7H-Dodecafluoro-1-heptanol]
Procedure: as §1

[3] = compound: O=C(O)C(F)(F)C(F)(F)C(F)(F)C(F)(F)C(F)(F)C(F)(F)C(F)(F)C(F)(F)Cl [9-Chloro-perfluorononanoic acid]
Procedure: as §1

Perfluorooctanamide = compound: NC(=O)C(F)(F)C(F)(F)C(F)(F)C(F)(F)C(F)(F)C(F)(F)C(F)(F)F [Perfluorooctanamide]
Procedure: as §1

[4] = compound: O=P(O)(O)CCC(F)(F)C(F)(F)C(F)(F)C(F)(F)C(F)(F)C(F)(F)C(F)(F)C(F)(F)F [((Perfluorooctyl)ethyl)phosphonic acid]
Procedure: as §1

| Test System | level (log10) (1H,1H-Heptafluorobutanol; 6700 nM) | level (log10) (1H,1H-Heptafluorobutanol; 20000 nM) | level (log10) (1H,1H-Heptafluorobutanol; 60000 nM) | level (log10) (Perfluorooctanamidine; 6700 nM) | level (log10) (Perfluorooctanamidine; 20000 nM) | level (log10) (Perfluorooctanamidine; 60000 nM) | level (log10) ([1]; 6700 nM) | level (log10) ([1]; 20000 nM) | level (log10) ([1]; 60000 nM) | level (log10) ([2]; 6700 nM) | level (log10) ([2]; 20000 nM) | level (log10) ([2]; 60000 nM) | level (log10) ([3]; 6700 nM) | level (log10) ([3]; 20000 nM) | level (log10) (Perfluorooctanamide; 6700 nM) | level (log10) (Perfluorooctanamide; 20000 nM) | level (log10) (Perfluorooctanamide; 60000 nM) | level (log10) ([4]; 6700 nM) | level (log10) ([4]; 20000 nM) | level (log10) ([4]; 60000 nM) |
| --- | --- | --- | --- | --- | --- | --- | --- | --- | --- | --- | --- | --- | --- | --- | --- | --- | --- | --- | --- | --- |
| SAg:Proliferation | 0.009 ± 0.0042 | 0.008 ± 0.02 | 0.0125 ± 0.021 | 0.0195 ± 0.011 | 0 ± 0.048 | -0.565 | -0.0415 ± 0.011 | -0.033 ± 0.0057 | -0.0835 ± 0.1 | -0.003 ± 0.014 | 0.03 ± 0.037 | 0.007 ± 0.018 | -0.036 ± 0.033 | 0.02 ± 0.02 | -0.05 ± 0.071 | -0.0255 ± 0.033 | -0.001 ± 0.0014 | -0.023 ± 0.023 | -0.03 ± 0.0071 | -0.0345 ± 0.077 |
| LPS:CXCL8/IL-8 | 0.0085 ± 0.013 | -0.006 | -0.025 ± 0.0014 | -0.019 ± 0.027 | -0.005 ± 0.016 | -0.028 | -0.019 ± 0.0099 | 0.015 ± 0.0057 | 0.0265 ± 0.013 | 0.0055 ± 0.029 | 0.0005 ± 0.022 | 0.0025 ± 0.011 | 0.019 ± 0.062 | 0.061 ± 0.048 | -0.012 ± 0.024 | -0.049 ± 0.023 | -0.0335 ± 0.021 | -0.021 ± 0.021 | -0.0255 ± 0.011 | -0.04 ± 0.0057 |
| LPS:CD69 | -0.016 ± 0.021 | -0.0245 ± 0.021 | -0.0075 ± 0.0035 | -0.025 ± 0.045 | -0.0395 ± 0.04 | -0.132 | 0.0025 ± 0.026 | 0.007 | 0.063 ± 0.018 | -0.002 ± 0.096 | -0.0005 ± 0.076 | 0.0005 ± 0.079 | -0.0335 ± 0.026 | -0.063 ± 0.028 | -0.0115 ± 0.086 | 0.0295 ± 0.036 | 0.0385 ± 0.029 | -0.04 ± 0.0042 | -0.032 ± 0.018 | -0.0305 ± 0.023 |
| LPS:sTNF-alpha | 0.005 | 0.0015 ± 0.019 | -0.0155 ± 0.032 | -0.0145 ± 0.071 | -0.095 ± 0.17 | -0.08 | -0.001 ± 0.0014 | 0.0195 ± 0.0064 | 0.07 ± 0.014 | -0.06 ± 0.028 | -0.04 ± 0.042 | -0.023 ± 0.073 | -0.0115 ± 0.0078 | -0.004 ± 0.014 | -0.036 ± 0.034 | -0.025 ± 0.0085 | -0.028 ± 0.0071 | 0.0165 ± 0.088 | 0.008 ± 0.1 | -0.004 ± 0.18 |
| BT:sTNF-alpha | 0.078 ± 0.055 | 0.0915 ± 0.057 | 0.011 ± 0.083 | 0.102 ± 0.099 | 0.0345 ± 0.084 | 0.01 | -0.075 ± 0.064 | -0.0605 ± 0.016 | 0.0315 ± 0.18 | -0.01 ± 0.31 | 0.0815 ± 0.039 | -0.0155 ± 0.15 | 0.0075 ± 0.011 | 0.0075 ± 0.022 | -0.0175 ± 0.011 | 0.0215 ± 0.056 | -0.129 ± 0.095 | -0.019 ± 0.013 | -0.0175 ± 0.15 | -0.211 ± 0.39 |
| 3C:Proliferation | 0.0075 ± 0.005 | 0.02 ± 0.025 | -0.0595 ± 0.005 | -0.0395 ± 0.018 | -0.054 ± 0.028 | -0.194 | -0.0155 ± 0.054 | -0.044 ± 0.033 | -0.379 ± 0.24 | -0.0365 ± 0.091 | -0.0885 ± 0.07 | -0.034 ± 0.045 | 0.016 ± 0.079 | 0.019 ± 0.041 | 0.0165 ± 0.0021 | 0 ± 0.014 | -0.081 ± 0.0085 | -0.0505 ± 0.019 | -0.172 ± 0.071 | -0.481 ± 0.18 |
| BF4T:SRB | 0.004 ± 0.017 | -0.0075 ± 0.0078 | 0.009 ± 0.017 | -0.009 ± 0.0071 | -0.0085 ± 0.0035 | -0.004 | -0.006 ± 0.0085 | 0.0075 ± 0.0021 | 0.0055 ± 0.023 | -0.007 ± 0.0028 | -0.01 | -0.0005 ± 0.005 | -0.013 ± 0.0071 | -0.0555 ± 0.0064 | -0.005 ± 0.0042 | 0.008 ± 0.011 | -0.006 ± 0.0042 | -0.008 ± 0.0028 | -0.009 ± 0.0014 | -0.0045 ± 0.0078 |
| LPS:CD141/Thrombomodulin | 0.01 ± 0.013 | 0.003 ± 0.016 | -0.008 ± 0.011 | -0.0235 ± 0.0078 | -0.0325 ± 0.022 | -0.01 | -0.013 ± 0.037 | -0.0095 ± 0.042 | 0.0325 ± 0.0021 | 0.001 ± 0.028 | 0.0005 ± 0.037 | 0.0005 ± 0.042 | 0.0485 ± 0.033 | 0.064 ± 0.03 | -0.016 ± 0.03 | -0.0075 ± 0.0064 | -0.0155 ± 0.037 | -0.02 ± 0.013 | -0.049 ± 0.0085 | 0.0065 ± 0.028 |
| LPS:CD142/Tissue Factor | 0.012 ± 0.05 | 0.015 ± 0.034 | -0.0125 ± 0.0078 | -0.008 ± 0.037 | 0.0055 ± 0.033 | -0.071 | 0.0055 ± 0.012 | 0.0385 ± 0.018 | 0.034 ± 0.0057 | -0.008 ± 0.0014 | -0.0175 ± 0.015 | 0.0065 ± 0.025 | 0.0165 ± 0.059 | 0.0375 ± 0.016 | -0.0585 ± 0.0092 | 0.0025 ± 0.032 | -0.002 ± 0.0042 | -0.023 ± 0.0014 | -0.01 ± 0.0099 | 0.032 ± 0.033 |
| LPS:SRB | -0.0085 ± 0.0035 | 0.005 ± 0.0014 | -0.003 ± 0.0028 | -0.005 ± 0.0085 | 0.006 ± 0.011 | -0.035 | -0.006 | -0.0095 ± 0.0021 | -0.028 ± 0.0099 | -0.008 ± 0.0014 | -0.006 ± 0.0042 | -0.0015 ± 0.015 | 0.0015 ± 0.012 | -0.0035 ± 0.013 | 0.006 ± 0.013 | 0.001 ± 0.0099 | -0.0015 ± 0.011 | -0.01 ± 0.0042 | -0.0195 ± 0.011 | -0.08 ± 0.047 |
| BF4T:MMP-1 | 0.002 ± 0.013 | 0.0085 ± 0.00071 | -0.002 ± 0.018 | 0.015 ± 0.02 | 0.006 ± 0.024 | 0.092 | 0.0005 ± 0.0035 | -0.0145 ± 0.0092 | -0.011 ± 0.02 | 0.0095 ± 0.04 | 0.0145 ± 0.037 | 0.0245 ± 0.0092 | -0.0115 ± 0.0078 | 0.0245 ± 0.0064 | -0.0195 ± 0.0078 | 0.0055 ± 0.005 | -0.0385 ± 0.011 | -0.005 ± 0.0014 | 0.0075 ± 0.022 | 0.007 ± 0.05 |
| BF4T:CCL26/Eotaxin-3 | 0.0275 ± 0.04 | 0.0405 ± 0.022 | 0.0315 ± 0.013 | 0.0375 ± 0.044 | -0.0585 ± 0.026 | -0.106 | 0.009 ± 0.048 | -0.0205 ± 0.032 | -0.0065 ± 0.0064 | 0.0025 ± 0.043 | -0.0005 ± 0.036 | 0.013 ± 0.028 | -0.144 ± 0.016 | -0.27 ± 0.014 | 0.016 ± 0.017 | -0.0015 ± 0.057 | -0.0475 ± 0.0064 | -0.084 ± 0.0099 | -0.157 ± 0.018 | -0.14 ± 0.056 |
| 3C:HLA-DR | -0.0025 ± 0.0021 | 0.0035 ± 0.012 | 0.005 ± 0.014 | 0.0025 ± 0.016 | -0.0295 ± 0.0064 | -0.035 | -0.0205 ± 0.013 | -0.0285 ± 0.005 | -0.092 ± 0.035 | 0.008 ± 0.018 | -0.0055 ± 0.016 | -0.0105 ± 0.013 | -0.0105 ± 0.0078 | 0.004 ± 0.021 | 0.001 ± 0.034 | 0.002 ± 0.017 | 0.0095 ± 0.019 | 0.005 ± 0.0085 | 0.001 ± 0.0042 | -0.0285 ± 0.023 |
| SAg:CD40 | -0.011 ± 0.018 | 0.0045 ± 0.0092 | 0.0175 ± 0.074 | -0.0055 ± 0.0021 | 0.014 ± 0.023 | -0.093 | -0.0125 ± 0.011 | -0.0335 ± 0.0021 | -0.0515 ± 0.0078 | 0.015 ± 0.0099 | 0 ± 0.018 | -0.0015 ± 0.005 | -0.013 ± 0.033 | -0.024 ± 0.031 | -0.0215 ± 0.028 | -0.0195 ± 0.0064 | -0.021 ± 0.033 | -0.0305 ± 0.0078 | -0.0405 ± 0.018 | -0.136 ± 0.025 |

— the supplement of paper PMC10331698
